In the NIST ThermoML archive (doi:10.1021/je050175u):
± gives the expanded uncertainty stated by the source.

Experiment: excess molar enthalpy (molar enthalpy of mixing); xn = mol fraction of the nth substance listed
Conditions: Liquid, Flow calorimetry
[1] = 298.15 K, 10000 kPa, x1 = 0.201
[2] = 298.15 K, 10000 kPa, x1 = 0.251
[3] = 298.15 K, 10000 kPa, x1 = 0.351
[4] = 298.15 K, 10000 kPa, x1 = 0.851
[5] = 308.15 K, 10000 kPa, x1 = 0.243
[6] = 308.15 K, 10000 kPa, x1 = 0.541

COC(C)=O [methyl ethanoate] + CCCCO
excess molar enthalpy (298.15 K, 5000 kPa, x1 = 0.05): 0.325 ± 0.0071 kJ/mol | excess molar enthalpy (298.15 K, 5000 kPa, x1 = 0.1): 0.607 ± 0.0088 kJ/mol | excess molar enthalpy (298.15 K, 5000 kPa, x1 = 0.149): 0.84 ± 0.011 kJ/mol | excess molar enthalpy (298.15 K, 5000 kPa, x1 = 0.199): 1.04 ± 0.012 kJ/mol | excess molar enthalpy (298.15 K, 5000 kPa, x1 = 0.249): 1.2 ± 0.014 kJ/mol | excess molar enthalpy (298.15 K, 5000 kPa, x1 = 0.3): 1.34 ± 0.015 kJ/mol | excess molar enthalpy (298.15 K, 5000 kPa, x1 = 0.349): 1.44 ± 0.016 kJ/mol | excess molar enthalpy (298.15 K, 5000 kPa, x1 = 0.399): 1.5 ± 0.016 kJ/mol | excess molar enthalpy (298.15 K, 5000 kPa, x1 = 0.45): 1.55 ± 0.017 kJ/mol | excess molar enthalpy (298.15 K, 5000 kPa, x1 = 0.501): 1.56 ± 0.017 kJ/mol | excess molar enthalpy (298.15 K, 5000 kPa, x1 = 0.55): 1.54 ± 0.017 kJ/mol | excess molar enthalpy (298.15 K, 5000 kPa, x1 = 0.6): 1.5 ± 0.016 kJ/mol | excess molar enthalpy (298.15 K, 5000 kPa, x1 = 0.651): 1.43 ± 0.015 kJ/mol | excess molar enthalpy (298.15 K, 5000 kPa, x1 = 0.699): 1.32 ± 0.014 kJ/mol | excess molar enthalpy (298.15 K, 5000 kPa, x1 = 0.751): 1.19 ± 0.013 kJ/mol | excess molar enthalpy (298.15 K, 5000 kPa, x1 = 0.801): 1.02 ± 0.011 kJ/mol | excess molar enthalpy (298.15 K, 5000 kPa, x1 = 0.851): 0.813 ± 0.0091 kJ/mol | excess molar enthalpy (298.15 K, 5000 kPa, x1 = 0.899): 0.589 ± 0.0069 kJ/mol | excess molar enthalpy (298.15 K, 5000 kPa, x1 = 0.951): 0.304 ± 0.004 kJ/mol | excess molar enthalpy (298.15 K, 10000 kPa, x1 = 0.05): 0.322 ± 0.007 kJ/mol | excess molar enthalpy (298.15 K, 10000 kPa, x1 = 0.1): 0.604 ± 0.0087 kJ/mol | excess molar enthalpy (298.15 K, 10000 kPa, x1 = 0.149): 0.835 ± 0.01 kJ/mol | excess molar enthalpy [1]: 1.04 ± 0.012 kJ/mol | excess molar enthalpy [2]: 1.21 ± 0.013 kJ/mol | excess molar enthalpy (298.15 K, 10000 kPa, x1 = 0.3): 1.33 ± 0.015 kJ/mol | excess molar enthalpy [3]: 1.43 ± 0.015 kJ/mol | excess molar enthalpy (298.15 K, 10000 kPa, x1 = 0.401): 1.5 ± 0.016 kJ/mol | excess molar enthalpy (298.15 K, 10000 kPa, x1 = 0.449): 1.54 ± 0.016 kJ/mol | excess molar enthalpy (298.15 K, 10000 kPa, x1 = 0.5): 1.56 ± 0.017 kJ/mol | excess molar enthalpy (298.15 K, 10000 kPa, x1 = 0.549): 1.54 ± 0.016 kJ/mol | excess molar enthalpy (298.15 K, 10000 kPa, x1 = 0.599): 1.5 ± 0.016 kJ/mol | excess molar enthalpy (298.15 K, 10000 kPa, x1 = 0.65): 1.42 ± 0.015 kJ/mol | excess molar enthalpy (298.15 K, 10000 kPa, x1 = 0.701): 1.32 ± 0.014 kJ/mol | excess molar enthalpy (298.15 K, 10000 kPa, x1 = 0.751): 1.19 ± 0.013 kJ/mol | excess molar enthalpy (298.15 K, 10000 kPa, x1 = 0.8): 1.02 ± 0.012 kJ/mol | excess molar enthalpy [4]: 0.818 ± 0.01 kJ/mol | excess molar enthalpy (298.15 K, 10000 kPa, x1 = 0.899): 0.591 ± 0.0086 kJ/mol | excess molar enthalpy (298.15 K, 10000 kPa, x1 = 0.951): 0.304 ± 0.0068 kJ/mol | excess molar enthalpy (308.15 K, 10000 kPa, x1 = 0.047): 0.306 ± 0.0073 kJ/mol | excess molar enthalpy (308.15 K, 10000 kPa, x1 = 0.098): 0.616 ± 0.0092 kJ/mol | excess molar enthalpy (308.15 K, 10000 kPa, x1 = 0.146): 0.872 ± 0.011 kJ/mol | excess molar enthalpy (308.15 K, 10000 kPa, x1 = 0.193): 1.08 ± 0.012 kJ/mol | excess molar enthalpy [5]: 1.26 ± 0.014 kJ/mol | excess molar enthalpy (308.15 K, 10000 kPa, x1 = 0.291): 1.4 ± 0.015 kJ/mol | excess molar enthalpy (308.15 K, 10000 kPa, x1 = 0.343): 1.52 ± 0.016 kJ/mol | excess molar enthalpy (308.15 K, 10000 kPa, x1 = 0.39): 1.6 ± 0.017 kJ/mol | excess molar enthalpy (308.15 K, 10000 kPa, x1 = 0.44): 1.65 ± 0.018 kJ/mol | excess molar enthalpy (308.15 K, 10000 kPa, x1 = 0.492): 1.67 ± 0.018 kJ/mol | excess molar enthalpy [6]: 1.66 ± 0.018 kJ/mol | excess molar enthalpy (308.15 K, 10000 kPa, x1 = 0.591): 1.61 ± 0.017 kJ/mol | excess molar enthalpy (308.15 K, 10000 kPa, x1 = 0.641): 1.54 ± 0.017 kJ/mol | excess molar enthalpy (308.15 K, 10000 kPa, x1 = 0.692): 1.44 ± 0.016 kJ/mol | excess molar enthalpy (308.15 K, 10000 kPa, x1 = 0.744): 1.29 ± 0.014 kJ/mol | excess molar enthalpy (308.15 K, 10000 kPa, x1 = 0.794): 1.12 ± 0.013 kJ/mol | excess molar enthalpy (308.15 K, 10000 kPa, x1 = 0.896): 0.66 ± 0.0091 kJ/mol | excess molar enthalpy (308.15 K, 10000 kPa, x1 = 0.947): 0.353 ± 0.0077 kJ/mol

COC(C)=O [methyl ethanoate] + CC(C)O
excess molar enthalpy (298.15 K, 5000 kPa, x1 = 0.1): 0.558 ± 0.008 kJ/mol | excess molar enthalpy (298.15 K, 5000 kPa, x1 = 0.151): 0.794 ± 0.0099 kJ/mol | excess molar enthalpy (298.15 K, 5000 kPa, x1 = 0.199): 0.983 ± 0.011 kJ/mol | excess molar enthalpy (298.15 K, 5000 kPa, x1 = 0.249): 1.15 ± 0.013 kJ/mol | excess molar enthalpy (298.15 K, 5000 kPa, x1 = 0.299): 1.29 ± 0.014 kJ/mol | excess molar enthalpy (298.15 K, 5000 kPa, x1 = 0.349): 1.4 ± 0.015 kJ/mol | excess molar enthalpy (298.15 K, 5000 kPa, x1 = 0.401): 1.49 ± 0.016 kJ/mol | excess molar enthalpy (298.15 K, 5000 kPa, x1 = 0.45): 1.54 ± 0.017 kJ/mol | excess molar enthalpy (298.15 K, 5000 kPa, x1 = 0.499): 1.57 ± 0.017 kJ/mol | excess molar enthalpy (298.15 K, 5000 kPa, x1 = 0.55): 1.56 ± 0.017 kJ/mol | excess molar enthalpy (298.15 K, 5000 kPa, x1 = 0.599): 1.53 ± 0.016 kJ/mol | excess molar enthalpy (298.15 K, 5000 kPa, x1 = 0.649): 1.47 ± 0.016 kJ/mol | excess molar enthalpy (298.15 K, 5000 kPa, x1 = 0.7): 1.38 ± 0.015 kJ/mol | excess molar enthalpy (298.15 K, 5000 kPa, x1 = 0.75): 1.25 ± 0.014 kJ/mol | excess molar enthalpy (298.15 K, 5000 kPa, x1 = 0.799): 1.1 ± 0.012 kJ/mol | excess molar enthalpy (298.15 K, 5000 kPa, x1 = 0.851): 0.883 ± 0.0098 kJ/mol | excess molar enthalpy (298.15 K, 5000 kPa, x1 = 0.9): 0.643 ± 0.0074 kJ/mol | excess molar enthalpy (298.15 K, 5000 kPa, x1 = 0.949): 0.358 ± 0.0046 kJ/mol | excess molar enthalpy (298.15 K, 10000 kPa, x1 = 0.1): 0.552 ± 0.0081 kJ/mol | excess molar enthalpy (298.15 K, 10000 kPa, x1 = 0.151): 0.794 ± 0.01 kJ/mol | excess molar enthalpy [1]: 0.995 ± 0.012 kJ/mol | excess molar enthalpy [2]: 1.16 ± 0.013 kJ/mol | excess molar enthalpy (298.15 K, 10000 kPa, x1 = 0.301): 1.3 ± 0.014 kJ/mol | excess molar enthalpy [3]: 1.4 ± 0.015 kJ/mol | excess molar enthalpy (298.15 K, 10000 kPa, x1 = 0.4): 1.48 ± 0.016 kJ/mol | excess molar enthalpy (298.15 K, 10000 kPa, x1 = 0.45): 1.53 ± 0.016 kJ/mol | excess molar enthalpy (298.15 K, 10000 kPa, x1 = 0.501): 1.56 ± 0.017 kJ/mol | excess molar enthalpy (298.15 K, 10000 kPa, x1 = 0.55): 1.55 ± 0.017 kJ/mol | excess molar enthalpy (298.15 K, 10000 kPa, x1 = 0.601): 1.52 ± 0.016 kJ/mol | excess molar enthalpy (298.15 K, 10000 kPa, x1 = 0.651): 1.46 ± 0.016 kJ/mol | excess molar enthalpy (298.15 K, 10000 kPa, x1 = 0.699): 1.37 ± 0.015 kJ/mol | excess molar enthalpy (298.15 K, 10000 kPa, x1 = 0.749): 1.24 ± 0.014 kJ/mol | excess molar enthalpy (298.15 K, 10000 kPa, x1 = 0.799): 1.08 ± 0.012 kJ/mol | excess molar enthalpy [4]: 0.868 ± 0.011 kJ/mol | excess molar enthalpy (298.15 K, 10000 kPa, x1 = 0.9): 0.627 ± 0.0091 kJ/mol | excess molar enthalpy (298.15 K, 10000 kPa, x1 = 0.949): 0.339 ± 0.0073 kJ/mol | excess molar enthalpy (308.15 K, 10000 kPa, x1 = 0.048): 0.312 ± 0.0066 kJ/mol | excess molar enthalpy (308.15 K, 10000 kPa, x1 = 0.097): 0.593 ± 0.0087 kJ/mol | excess molar enthalpy (308.15 K, 10000 kPa, x1 = 0.145): 0.831 ± 0.01 kJ/mol | excess molar enthalpy (308.15 K, 10000 kPa, x1 = 0.195): 1.05 ± 0.012 kJ/mol | excess molar enthalpy [5]: 1.22 ± 0.014 kJ/mol | excess molar enthalpy (308.15 K, 10000 kPa, x1 = 0.293): 1.38 ± 0.015 kJ/mol | excess molar enthalpy (308.15 K, 10000 kPa, x1 = 0.342): 1.49 ± 0.016 kJ/mol | excess molar enthalpy (308.15 K, 10000 kPa, x1 = 0.392): 1.59 ± 0.017 kJ/mol | excess molar enthalpy (308.15 K, 10000 kPa, x1 = 0.441): 1.64 ± 0.017 kJ/mol | excess molar enthalpy (308.15 K, 10000 kPa, x1 = 0.49): 1.67 ± 0.018 kJ/mol | excess molar enthalpy [6]: 1.67 ± 0.018 kJ/mol | excess molar enthalpy (308.15 K, 10000 kPa, x1 = 0.592): 1.64 ± 0.017 kJ/mol | excess molar enthalpy (308.15 K, 10000 kPa, x1 = 0.643): 1.57 ± 0.017 kJ/mol | excess molar enthalpy (308.15 K, 10000 kPa, x1 = 0.693): 1.48 ± 0.016 kJ/mol | excess molar enthalpy (308.15 K, 10000 kPa, x1 = 0.743): 1.36 ± 0.015 kJ/mol | excess molar enthalpy (308.15 K, 10000 kPa, x1 = 0.793): 1.19 ± 0.013 kJ/mol | excess molar enthalpy (308.15 K, 10000 kPa, x1 = 0.897): 0.708 ± 0.0096 kJ/mol | excess molar enthalpy (308.15 K, 10000 kPa, x1 = 0.949): 0.38 ± 0.0082 kJ/mol
